Reference: patent US20120151612A1, “NON-SURGICAL APPROACH TO PREVENT AND CORRECT CRANIOFACIAL MALFORMATIONS DURING DEVELOPMENT” (UNIVERSITY OF SOUTHERN CALIFORNIA, priority 2010, published 2012)
“Also recorded” adds a separate entry of the source.

What was measured:
[1] = test system: Tgfbr2^fl/fl; Wnt1-Cre mice; assay: Rescue of cleft palate in Tgfbr2^fl/fl; Wnt1-Cre embryos after feeding telmisartan to pregnant females; assay type: in vivo; conditions: for cleft palate (in words): Tgfbr2 mutant mice, treatment of pregnant mice
Method: (§1) Animals. To generate Tgfbr2^fl/fl; Wnt1-Cre mice, we mated Tgfbr2^fl/+; Wnt1-Cre with Tgfbr2^fl/fl mice. To generate Tgfbr2^fl/fl; Wnt1-Cre; Tgfb2^+/− mice, we mated Tgfbr2^fl/+; Wnt1-Cre; Tgfb2^+/− with Tgfbr2^fl/fl mice. To generate Tgfbr2^fl/fl; Wnt1-Cre; Alk5^fl/+ mice, we mated Tgfbr2^fl/+; Wnt1-Cre; Alk5^fl/fl with Tgfbr2^fl/fl; Alk5^fl/fl mice. Genotyping was performed using PCR primers as described previously^28, 29. Female Tgfbr2^fl/fl mice, which underwent timed matings with Tgfbr2^fl/+; Wnt1-Cre male mice, were treated with oral telmisartan (0.5 mg in 25 μl dimethyl sulfoxide per day by a feeding tube) or vehicle (25 μl dimethl sulfoxide by a feeding tube) from 0.5 day post-coitum (E0.5). Therapy was continued throughout pregnancy.

p38 MAPK [2] = assay: Immunoblotting of p38 MAPK activity in mice after telmisartan treatment; assay type: in vivo; conditions: Tgfbr2^fl/fl; Wnt1-Cre mice after telmisartan treatment
Method: Animals. To generate Tgfbr2^fl/fl; Wnt1-Cre mice, we mated Tgfbr2^fl/+; Wnt1-Cre with Tgfbr2^fl/fl mice. To generate Tgfbr2^fl/fl; Wnt1-Cre; Tgfb2^+/- mice, we mated Tgfbr2^fl/+; Wnt1-Cre; Tgfb2^+/- with Tgfbr2^fl/fl mice. To generate Tgfbr2^fl/fl; Wnt1-Cre; Alk5^fl/+ mice, we mated Tgfbr2^fl/+; Wnt1-Cre; Alk5^fl/fl with Tgfbr2^fl/fl; Alk5^fl/fl mice. Genotyping was performed using PCR primers as described previously^28, 29. Female Tgfbr2^fl/fl mice, which underwent timed matings with Tgfbr2^fl/+; Wnt1-Cre male mice, were treated with oral telmisartan (0.5 mg in 25 μl dimethyl sulfoxide per day by a feeding tube) or vehicle (25 μ[…] sulfoxide by a feeding tube) from 0.5 day post-coitum (E0.5). Therapy was continued throughout pregnancy. Immunological analysis. Immunoblots were performed as described previously. Antibodies used for immunoblotting were as follows: rabbit polyclonal antibodies against p38, JNK, and phospho-JNK (Cell Signaling Technology), 14-3-3ζ/δ, Smad2/3, […] (Abeam), phospho-14-3-3 (ABR), 14-3-3ε, and β-spectrin (Santa Cruz Biotechnology); rabbit monoclonal antibodies against phospho-p38, and phospho-Smad2 (Cell Signaling Technology); and mouse monoclonal antibodies against Smad4, and Tgf-βrIII (Santa Cruz Biotechnology), Tgf-β2 (Abeam), and GAPDH (Chemicon). MEPM cells were treated with or without p38 MAPK inhibitor SB203580 at 10 μM for 24 hours.

[3] = test system: Tgfbr2^fl/fl; Wnt1-Cre mice; assay: Triacylglycerol level in mice after telmisartan treatment; assay type: in vivo; conditions: E18.5
Method: as §1
Triacylglycerol amount. Triacylglycerol amounts were measured by an enzymatic method using N-ethyl-N-(2-hydroxy-3-sulfopropyl)-3,5-dimethoxyaniline sodium salt according to the manufacturer's instructions (Wako). Data is expressed as mg per 100 mg protein.

[4] = test system: Tgfbr2^fl/fl and Tgfbr2^fl/fl; Wnt1-Cre embryos; assay: Histological analyses of embryo organs (heart, kidney, liver) after feeding telmisartan to pregnant females; assay type: in vivo, mice
Method: as §1
Histological examination. Hematoxylin and eosin staining and BrdU staining were performed as described previously. Immunohistochemical staining was performed as described previously. Antibodies used for immunohistochemistry were anti-β-spectrin rabbit polyclonal, and anti-Tgf-βrIII mouse monoclonal antibodies (Santa Cruz Biotechnology), anti-Tgf-β2 mouse monoclonal, and anti-14-3-3 rabbit polyclonal antibodies (Abeam). Fluorescence images were obtained using a fluorescence microscope (Model IX71, Olympus).

p38 MAPK [5] = assay: Immunoblot of p38 MAPK and 14-3-3ζ/δ phosphorylation in primary MEPM cells; assay type: cell-based, mice; conditions: Tgfbr2^fl/fl; Wnt1-Cre MEPM cells, 10 μM for 24 hours
Method: (§2) Primary MEPM cells. Primary MEPM cells were obtained from E13.5 embryos. Briefly, palatal shelves were dissected at E13.5, and trypsinized for 30 minutes at 37° C. in a CO2 incubator. After pipetting thoroughly, cells were cultured in Dulbecco's modified Eagle's medium containing 10% fetal bovine serum supplemented with penicillin, streptomycin, L-glutamate, sodium pyruvate, and nonessential amino acids.

[6] = test system: Tgfbr2^fl/fl; Wnt1-Cre palate; assay: Palatal shelf organ culture, BrdU-labeled nuclei (Example 2); assay type: cell-based, mice; conditions: ex vivo organ culture, 100 μM, 24 hours
Method: Histological examination. Hematoxylin and eosin staining and BrdU staining were performed as described previously. Immunohistochernical staining was performed as described previously. Antibodies used for immunohistochemistry were anti-β-spectrin rabbit polyclonal, and anti-Tgf-βRIII mouse monoclonal antibodies (Santa Cruz Biotechnology), anti-Tgf-β2 mouse monoclonal, and anti-14-3-3ζ/δ rabbit polyclonal antibodies (Abeam). Fluorescence images were obtained using a fluorescence microscope (Model IX71, Olympus).
Palatal shelf organ culture. Time-pregnant mice were sacrificed at E13.5. Genotyping was carried out as described above. The palatal shelves were microdissected and cultures in serum-less chemically defined medium as previously described. After 24 hours in culture treated with p38 MAPK inhibitor SB203580 (100 μM), and neutralizing antibody for Tgf-β2 (2 μg/ml) or Tgf-βRIII (2 μg/ml), palates were harvested, fixed in 4% paraformaldehyde/0.1 M phosphate buffer (pH 7.4) and processed.

[7] = test system: Tgfbr2^fl/fl; Wnt1-Cre MEPM cells; assay: Lipid droplet accumulation (Oil Red O staining) in primary MEPM cells; assay type: cell-based, mice
Method: Histological examination. Cryosections were stained with Oil Red O to detect lipid production. Prepared sections were washed three times in phosphate buffer saline (PBS) (each wash 5 min) and fixed in 4% formaldehyde in 0.1 M phosphate buffer for 1 h at room temperature. Sections were then incubated for 15 min in 60% isopropanol and stained for 15 min with a filtered solution of three parts of Oil Red O (saturated in isopropanol) and two parts of ddH2O. For the next step, slides were briefly rinsed in 60% isopropanol and washed thoroughly in ddH2O. Cells were counterstained in Mayers Hematoxylin Solution.
as §2

MEPM cells = assay: Pulse-chase analysis of lipid droplet formation; assay type: cell-based, mice
Method: Pulse-chase analysis of lipid droplet formation. Chemical inducers, oleic acid for lipogenesis and isoproterenol for lipolysis, were added into culture medium to analyze lipid droplet formation. The number of lipid droplets per cell was counted. Oleic acid was added to the medium at 100 μM for 0, 60, and 120 min, and then washed out and changed to the medium with 100 μM isoproterenol for 10 and 30 min. Twenty cells were counted at each time point.

[8] = test system: palatal mesenchyme of E13.5 palatal explants; assay: Palatal shelf organ culture with bead implantation or antibody, BrdU cell proliferation and fusion (Example 1); assay type: cell-based, mice
Method: Palatal shelf organ cultures and bead implantation. Timed-pregnant mice were sacrificed on postcoital day 13.5 (E13.5). Genotyping was carried out as previously described (Depew et al., 1999; Satokata and Maas, 1994). Paired secondary palatal shelves were microdissected and cultured in serumless, chemically-defined medium as previously described (Ito et al., 2003). For bead implantation, Affi-Gel blue agarose beads (BioRad) were soaked in proteins as previously described (Zhang et al., 2002). […] Shh N-terminal peptide (R & D 7 systems) was used at 1 mg/ml, anti-Shh antibody (Developmental Studies Hybridoma Bank) was used at 0.30 mg/ml, and BSA was used at 10 ng/ml. Neutralizing antibodies to Fgf7 (MAB251) and Mouse IgG1 (MAB002) (R & D Systems) were added to the culture medium at concentrations of 50 μg/ml.
Apoptosis and cell proliferation. Following treatment with […] proteinase K for 15 minutes at room temperature, apoptotic cells were assayed by the TUNEL procedure using the In Situ Cell Death Detection (fluorescein) kit (Roche Molecular Biochemicals) by following the manufacturer's protocol. Cell proliferation was scored by injection of BrdU (5-bromo-2′-deoxy-uridine, Sigma. 100 μg/g body weight) into pregnant females 1 hour before recovery of embryos. For palatal organ culture, BrdU was supplemented into culture medium at concentration of 100 μM for 2 hours before harvest. […]

[9] = test system: MEE of E13.5 wild type palatal shelves; assay: TUNEL apoptosis assay in palatal explants; assay type: cell-based, mice; conditions: Shh beads vs BSA beads
Method: (§3) Palatal shelf organ cultures and bead implantation. Timed-pregnant mice were sacrificed on postcoital day 13.5 (E13.5). Genotyping was carried out as previously described (Depew et al., 1999; Satokata and Maas, 1994). Paired secondary palatal shelves were microdissected and cultured in serumless, chemically-defined medium as previously described (Ito et al., 2003). For bead implantation, Affi-Gel blue agarose beads (BioRad) were soaked in proteins as previously described (Zhang et al., 2002). Tissues were harvested after 24 hours of culture and fixed in 4% paraformaldehyde for processing. Shh N-terminal peptide (R & D 7 systems) was used at 1 mg/ml, anti-Shh antibody (Developmental Studies Hybridoma Bank) was used at 0.30 mg/ml, and BSA was used at 10 ng/ml. Neutralizing antibodies to Fgf7 (MAB251) and Mouse IgG1 (MAB002) (R & D Systems) were added to the culture medium at concentrations of 50 μg/ml.
Apoptosis and cell proliferation. Following treatment with […] proteinase K for 15 minutes at room temperature, apoptotic cells were assayed by the TUNEL procedure using the In Situ Cell Death Detection (fluorescein) kit (Roche Molecular Biochemicals) by following the manufacturer's protocol. Cell proliferation was scored by injection of BrdU (5-bromo-2′-deoxy-uridine, Sigma. 100 μg/g body weight) into pregnant females 1 hour before recovery of embryos. […]

Fgf7 expression = assay: In situ hybridization of Fgf7 in treated palatal explants; assay type: cell-based, mice; conditions: Shh beads vs BSA beads
Method: as §3
(§4) In situ hybridization. Samples for whole-mount and section in situ hybridization were fixed in freshly made 4% paraformaldehyde/PBS. In situ hybridizations were performed as previously described (Xu et al., 2005). The following cDNAs were used to generate antisense riboprobes: a 1.2 kb fragment of mouse Msx1, a 900 bp mouse Dlx5, a 1.6 kb mouse Gli1, and 640 bp mouse Shh. […]

[10] = test system: Shh expression in the palatal epithelium; assay: In situ hybridization of Shh in treated palatal explants; assay type: cell-based, mice; conditions: Fgf7 beads
Method: as §3, §4

CCCc1nc2c(C)cc(-c3nc4ccccc4n3C)cc2n1Cc1ccc(-c2ccccc2C(=O)O)cc1 [telmisartan, 2-(4-{[4-methyl-6-(1-methyl-1H-1,3-benzodiazol-2-yl)-2-propyl-1H-1,3-benzodiazol-1-yl]methyl}phenyl)benzoic acid]
cell proliferation defect ([1]; Tgfbr2^fl/fl, Wnt1-Cre mice following telmisartan treatment): restored cell proliferation defect | cleft palate (in words) [1]: prevents the cleft palate | cleft palate (in words) ([1]; listed as Telmisartan): rescue cleft palate defects | cleft palate rescued, number of Tgfbr2^fl/fl; Wnt1-Cre mice ([1]; oral telmisartan 0.5 mg per day to pregnant females from E0.5): 5/18 | up-regulated p38 MAPK activity (p38 MAPK [2]): restored to normal | increased triacylglycerol level [3]: restored to normal | effect on kidney or liver histology ([4]; Tgfbr2^fl/fl and Tgfbr2^fl/fl, Wnt1-Cre embryos): does not appear to affect kidney or liver | heart defect ([4]; Tgfbr2^fl/fl, Wnt1-Cre mice after telmisartan): does not rescue the heart defect | side-effects in other organs ([4]; embryos after telmisartan to pregnant females): without obvious side-effects in other organs

C[S+]([O-])c1ccc(-c2nc(-c3ccc(F)cc3)c(-c3ccncc3)[nH]2)cc1 (stereo not shown) [SB203580, 4-[4-(4-fluorophenyl)-2-(4-methylsulfinylphenyl)-1H-imidazol-5-yl]pyridine]
phosphorylation of 14-3-3ζ/δ (p38 MAPK [5]): inhibited | phosphorylation of p38 (Mapk14) (p38 MAPK [5]): inhibited | cell proliferation defect (BrdU-labeled nuclei) [6]: rescued cell proliferation | lipid droplet accumulation [7]: failed to detect lipid droplet accumulation; also recorded: Lipid droplets did not accumulate

CCCCCCCC/C=C\CCCCCCCC(=O)O [oleic acid]
number of lipid droplets (MEPM cells; MEPM cells of both Tgfbr2^fl/fl and Tgfbr2^fl/fl, Wnt1-Cre mice, oleic acid 100 μM): increased

CC(C)NCC(O)c1ccc(O)c(O)c1 (stereo not shown) [isoproterenol]
number of lipid droplets (MEPM cells; Tgfbr2^fl/fl MEPM cells, after switch to 100 μM isoproterenol): decreased immediately | lipid droplet number (MEPM cells; Tgfbr2^fl/fl, Wnt1-Cre MEPM cells, after switch to 100 μM isoproterenol): remained high

Shh: Shh N-terminal peptide (R & D systems) used at 1 mg/ml, soaked into Affi-Gel blue agarose beads
palatal mesenchyme cell proliferation (BrdU) ([8]; E13.5 wild type palatal explants, Shh beads vs BSA beads): enhanced | palatal fusion of explants ([8]; Shh beads, two days of culture): able to fuse | apoptosis in the MEE (TUNEL) [9]: did not affect apoptosis | Fgf7 expression (Fgf7 expression): repressed

B1: Fgf7: Fgf7 protein on beads placed into E13.5 palatal shelves in vitro (protein)
chain: CNDMSPEQTATSVNCSSPERHTRSYDYMEGGDIRVRRLFCRTQWYLRIDKRGKVKGTQEMKNSYNIMEIRTVAVGIVAIKGVESEYYLAMNKEGKLYAKKECNEDCNFKELILENHYNTYASAKWTHSGGEMFVALNQKGIPVKGKKTKKEQKTAHFLPMAIT
Shh expression in the palatal epithelium ([10]; Dlx5−/− samples): inhibit Shh expression | Shh expression in the palatal epithelium ([10]; E13.5 palatal shelves, one day of culture, compared to BSA): dramatic reduction
